Measured values reported in patent US20250345426A1, “METHODS FOR MAKING AND USING THERAPEUTIC CELLS” (THE REGENTS OF THE UNIVERSITY OF CALIFORNIA, priority 2022, published 2025).

Tests used:
[1] = system: rituximab CAR-T cells; experiment: Antigen-independent activation and exhaustion marker expression by flow cytometry, rituximab CAR-T cells; format: cell-based, human; conditions: for measures of antigen-independent CAR-T cell activation: FIG. 1B-D (markers, TNF-α, cell division), MYCi975 2 μM
From the text: FIG. 1A-G. Pharmacological inhibition of PI3K/AKT pathway modulates antigen-independent CAR-T cell activation. (A) Table of pharmacological inhibitors used during ex vivo expansion of rituximab CAR-T cells (left). Simplified schematic of the PI3K/AKT signaling axis where black arrows represent activation (right). (B) Activation marker expression by CAR^+ T cells in the absence of antigen stimulation after 5 days of pharmacological modulation. Data bars indicate the means of technical triplicates±1 S.D. The bars in FIG. 1B represent data from, untreated, vehicle, CAL-101, AZD5363, Rapamycin, MYCi975, and Betulin, respectively, from left to right. (C) TNF-α production CAR^+ T cells in the absence of antigen stimulation as quantified by intracellular flow cytometry. Data bars indicate the means of technical triplicates±1 S.D. The bars in FIG. 1B and FIG. 1C represent data from, untreated, vehicle, CAL-101, AZD5363, Rapamycin, MYCi975, and Betulin, respectively, from left to right. (D) Proliferation of CAR^+ T cells stained with CellTrace Violet (CTV) dye was assayed after a 4-day culture in the absence of target cells or exogenous cytokines. Data shown in the histogram correspond to one of technical triplicates shown in the bar graph. The bars FIG. 1D represent data from, EGFRt, untreated, vehicle, CAL-101, AZD5363, Rapamycin, MYCi975, and Betulin, respectively, from left to right. (E) % distribution of T-cell subtypes in CAR^+ T cells after 5 days of pharmacological modulation. Data bars indicate the means of technical triplicates±1 S.D. (F) Rituximab CAR-T cell fold expansion after 6 days of inhibitor culture was tracked. T-cell fold expansion was normalized to the untreated control with each data point representing biological replicates collected from healthy donors. The bars FIG. 1F represent data from, EGFRt, vehicle, CAL-101, AZD5363, Rapamycin, MYCi975, and Betulin, respectively, from left to right. (G) A 24-hr lysis assay of CD20 CAR-T cells against Raji target cells at three effector-to-target (E:T) ratios. Data bars indicate the means of technical triplicates±1 S.D. Percent lysis was normalized to cell counts in target-only wells. […] In (B)-(F), results are representative two independent experiments using cells from of two heathy donors. Statistical significance in panels B, C, and D was determined by two-tailed Student's t test with Sidak correction for multiple comparisons. * p<0.05, ** p<0.01, *** p<0.001, n.s. not statistically significant. […]
(§1) Antibody staining for flow-cytometry analysis. EGFRt expression was measured with biotinylated cetuximab (Eli Lilly; biotinylated in-house), followed by PE-conjugated streptavidin (Jackson ImmunoResearch #016-110-084). CAR expression was quantified by surface epitope staining using anti-Fc (Alexa Fluor 488, Jackson ImmunoResearch #709-546-098). Antigen-independent activation-marker expression of CAR-T cells was evaluated by antibody staining for CD137 (PE/Cy7, clone 4B4-1, BioLegend #309818), and PD-1 (FITC, clone EH12.2H7, BioLegend #329904) on Days 18 (i.e., 18 days after Dynabead addition and 11 days after Dynabead removal) and after 5-6 days of inhibitor culture (FIG. 1, FIG. 3). T-cell subtype of CAR-T cells was evaluated by antibody staining for CD45RO (VioBlue®, clone REA611, Miltenyi #130-119-620) and CD62L (APC, clone DREG56, Invitrogen #17-0629-42) after 5-6 days of inhibitor culture (FIG. 1, FIG. 3). […]

[2] = system: rituximab CAR-T cells; experiment: T-cell subtype distribution (CD45RO/CD62L staining), rituximab CAR-T cells; format: cell-based, human; conditions: 5 days of pharmacological modulation, vs vehicle
From the text: FIG. 1A-G. Pharmacological inhibition of PI3K/AKT pathway modulates antigen-independent CAR-T cell activation. (A) Table of pharmacological inhibitors used during ex vivo expansion of rituximab CAR-T cells (left). Simplified schematic of the PI3K/AKT signaling axis where black arrows represent activation (right). (B) Activation marker expression by CAR^+ T cells in the absence of antigen stimulation after 5 days of pharmacological modulation. Data bars indicate the means of technical triplicates±1 S.D. The bars in FIG. 1B represent data from, untreated, vehicle, CAL-101, AZD5363, Rapamycin, MYCi975, and Betulin, respectively, from left to right. (C) TNF-α production CAR^+ T cells in the absence of antigen stimulation as quantified by intracellular flow cytometry. Data bars indicate the means of technical triplicates±1 S.D. The bars in FIG. 1B and FIG. 1C represent data from, untreated, vehicle, CAL-101, AZD5363, Rapamycin, MYCi975, and Betulin, respectively, from left to right. (D) Proliferation of CAR^+ T cells stained with CellTrace Violet (CTV) dye was assayed after a 4-day culture in the absence of target cells or exogenous cytokines. […] Statistical significance in panels B, C, and D was determined by two-tailed Student's t test with Sidak correction for multiple comparisons. * p<0.05, ** p<0.01, *** p<0.001, n.s. not statistically significant. […]
as §1, with “3).” for “3). T-cell subtype of CAR-T cells was evaluated by antibody staining for CD45RO (VioBlue®, clone REA611, Miltenyi #130-119-620) and CD62L (APC, clone DREG56, Invitrogen #17-0629-42) after 5-6 days of inhibitor culture (FIG. 1, FIG. 3).”

[3] = system: Raji tumor xenografts; experiment: Raji xenograft in NSG mice treated with inhibitor-preconditioned rituximab CAR-T cells; format: in vivo; conditions: NSG mice, Raji i.v., preconditioned rituximab CAR-T cells, bioluminescence, vs vehicle control
Method: FIG. 2A-C. […] (A) Tumor signal (in photons/sec/cm^2/sr) in individual animals as quantified by bioluminescence imaging. […] Statistical significance was determined by Mann-Whitney U test with Holm-Sidak correction for multiple comparisons. * p<0.05, n.s. not statistically significant. (B) Kaplan-Meier survival curve (top) and table of median survival period in days (bottom). (C) Frequency of human CD45+EGFRt+ cell in peripheral blood collected from mice on day 8 after first dose of T-cell infusion. Statistical significance was determined by two-tailed Student's t test with Sidak correction for multiple comparisons. * p<0.05, ** p<0.01.
In vivo studies. Six- to eight-week-old NOD/SCID/IL-2Rγ^null (NSG) mice were obtained from UCLA Department of Radiation and Oncology. The protocol was approved by UCLA Institutional Animal Care and Used Committee. […] Details of the dose and timing of tumor injection, T-cell injection, and tumor re-challenge are indicated in the text and figures. Tumor progression/regression was monitored with an IVIS Illumina III LT Imaging System (PerkinElmer). Blood samples were harvested via retro-orbital bleeding 3 days post T-cell injection and every 10-13 days thereafter. Mice were euthanized at the humane endpoint. Bone marrow, spleen and liver were collected after euthanasia. Tissues were ground and passed through a 100-μm filter followed by red-blood-cell lysis prior to flow-cytometry analysis.

Compound | tonic signaling [1] | measures of antigen-independent CAR-T cell activation [1] | fraction of naïve and stem-cell memory T (Tn/scm) cells / T-cell differentiation [2] | tumor outgrowth / tumor progression [3]
C=C(C)[C@@H]1CC[C@]2(CO)CC[C@]3(C)[C@H](CC[C@@H]4[C@@]5(C)CC[C@H](O)C(C)(C)[C@@H]5CC[C@]43C)[C@@H]12 [betulin, Betulin] | increased | increased most measures | accelerated T-cell differentiation | accelerated tumor progression
MYCi975 | increased | increased most measures | accelerated T-cell differentiation | accelerated tumor progression
